Consider 26 molecules from patent US12180226B2, “Spirotricycle RIPK1 inhibitors and methods of uses thereof” (Merck Sharp & Dohme LLC, priority 2021, dated 2024).

Structures can show the parent of a compound that is named as a salt.

For this assay, the target named is RIPK1 (recombinant GST-RIPK1 kinase domain, residues 1-327) (Homo sapiens (Human), UniProt Q13546). Description: RIPK1-ADP-Glo Enzymatic Assay. The assay is classed as biochemical. Conditions: ADP-Glo; 25 nM GST-RIPK1, 300 μM ATP; assay lower limit ~25 nM; read-out: RIPK1 V0 Ec50. The method, boiled down: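 Compounds titrated 10-pt 1:3 from 100000 nM top (1% DMSO); 30 min preinc w/ 25 nM Sf21-expressed enzyme, RT; start w/ ATP (300 μM final) + dephos-MBP (3 μM); 150 min; ADP-Glo lumi; 4-param fit → EC50.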
RIPK1 (recombinant GST-RIPK1 kinase domain, residues 1-327), sequence (Q13546 1-327): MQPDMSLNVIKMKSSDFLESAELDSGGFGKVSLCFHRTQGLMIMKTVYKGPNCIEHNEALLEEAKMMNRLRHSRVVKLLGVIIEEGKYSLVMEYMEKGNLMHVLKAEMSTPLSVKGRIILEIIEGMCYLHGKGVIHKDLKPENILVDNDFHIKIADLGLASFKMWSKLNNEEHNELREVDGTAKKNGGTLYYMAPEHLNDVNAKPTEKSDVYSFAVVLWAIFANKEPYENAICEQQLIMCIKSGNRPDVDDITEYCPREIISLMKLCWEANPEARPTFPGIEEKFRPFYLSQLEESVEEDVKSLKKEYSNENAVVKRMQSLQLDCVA
As for `O=C1N2[C@@H](CC[C@H]2c2ccccc2)OC12CCN(c1ccc(-c3nc4ccccc4[nH]3)cn1)CC2` [Example 4.166, (5′S,7a′R)-1-[5-(1H-benzimidazol-2-yl)pyridin-2-yl]-5′-phenyltetrahydro-3′H-spiro[piperidine-4,2′-pyrrolo[2,1-b] [1,3]oxazol]-3′-one], the EC50 amounted to 56.4 nM. `CN(C)c1cccc(C(=O)N2CCC3(CC2)O[C@@H]2CC[C@@H](c4ccccc4)N2C3=O)c1` [Example 6.144, (5′S,7a′R)-1-[3-(dimethylamino)ben-zene-1-carbonyl]-5′-phenyltetrahydro-3′H-spiro[piperidine-4,2′-pyrrolo[2,1-b][1,3]oxazol]-3'-one]: the EC50 was under 25 nM. With `O=C1N2[C@@H](CC[C@H]2c2ccccc2)OC12CCN(c1nc(-c3ccccn3)cs1)CC2` [Example 11.4, (5′S,7a′R)-5′-phenyl-1-[4-(pyridin-2-yl)-1,3-thiazol-2-yl]tetrahydro-3′H-spiro[piperidine-4,2′-pyrrolo[2,1-b][1,3]oxazol]-3′-one], the 50% effective concentration (EC50) was found to be 61.1 nM.

On to `N#Cc1ccc(N2CCC3(CC2)O[C@@H]2CC[C@@H](c4ccccc4)N2C3=O)c2ccnn12` [Example 13.19, 4-((5′S,7a′R)-3′-oxo-5′ phenyltetrahydro-3′H-spiro[piperidine-4,2′-pyrrolo[2,1-b]oxazol]-1-yl)pyrazolo[1,5-a]pyridine-7-carbonitrile, TFA salt], for which the EC50 was under 25 nM. The value for `O=C(c1cccc(Cl)c1F)N1CCC2(CC1)O[C@@H]1CC[C@@H](c3cc(F)cc(F)c3)N1C2=O` [Example 5.60, (5′S,7a′R)-1-(3-chloro-2-fluorobenzoyl)-5′-(3,5-difluorophenyl)tetrahydro-3′H-spiro[piperidine-4,2′-pyrrolo[2,1-b]oxazol]-3′-one] was under 25 nM; that for `N#Cc1ccc(N2CCC3(CC2)O[C@@H]2CC[C@@H](c4cc(F)cc(F)c4)N2C3=O)nc1` [Example 4.44, 6-[(5′S,7a′R)-5′-(3,5-difluorophenyl)-3′-oxotetrahydro-1H,3′H-spiro[piperidine-4,2′-pyrrolo[2,1-b] [1,3]oxazol]-1-yl]pyridine-3-carbonitrile] was under 25 nM; that for `O=C1N2[C@@H](CC[C@H]2c2ccccc2)OC12CCN(c1cc(-n3ccnc3)ccn1)CC2` [Example 11.21, (5′S,7a′R)-1-[4-(1H-imidazol-1-yl)pyridin-2-yl]-5′-phenyltetrahydro-3′H-spiro[piperidine-4,2′-pyrrolo[2,1-b][1,3]oxazol]-3′-one] was 229 nM.

As for `O=C1N2[C@@H](CC[C@H]2c2cc(F)cc(F)c2)OC12CCN(C(c1ccccc1)C(F)F)CC2` (single isomer, unassigned) [Example 22.2, (5′S,7a′R)-1-(2,2-Difluoro-1-phenylethyl)-5′-(3,5-difluorophenyl)tetrahydro-3′H-spiro[piperidine-4,2′-pyrrolo[2,1-b]oxazol]-3′-one], the EC50 was 243 nM. Take `O=C1N2[C@@H](CC[C@H]2c2ccccc2)OC12CCN(c1ccc(-c3cscn3)c3ncnn13)CC2` [Example 21.19, (5′S,7a′R)-5′-phenyl-1-[8-(1,3-thiazol-4-yl)[l,2,4]triazolo[1,5-a]pyridin-5-yl]tetrahydro-3′H-spiro[piperidine-4,2′-pyrrolo[2,1-b][1,3]oxazol]-3′-one]: the EC50 is under 25 nM. The figure for `O=C(c1nnn2ccccc12)N1CCC2(CC1)O[C@@H]1CC[C@@H](c3cc(F)cc(F)c3)N1C2=O` [Example 5.66, (5′S,7a′R)-1-([1,2,3]-triazolo-[1,5-a]pyridine-3-carbonyl)-5′-(3,5-difluoro-phenyl)tetrahydro-3′H-spiro[piperidine-4,2′-pyrrolo[2,1-b]oxazol]-3′-one] is 81.1 nM; for `COc1cc(N2CCC3(CC2)O[C@@H]2CC[C@@H](c4cccc(F)c4)N2C3=O)ncn1` [Example 4.51, (5′S,7a′R)-5′-(3-fluorophenyl)-1-(6-methoxypyrimidin-4-yl)tetrahydro-3′H-spiro[piperidine-4,2′-pyrrolo[2,1-b] [1,3]oxazol]-3′-one] it is 41.2 nM.

For the molecule `O=C(c1cc(F)ccc1F)N1CCC2(CC1)SC1CCC(c3ccccc3)N1C2=O` (centres unmarked) [Example 1.24, 1-(2,5-difluorobenzene-1-carbonyl)-5′-phenyltetrahydro-3′H-spiro[piperidine-4,2′-pyrrolo[2,1-b] [1,3]thiazol]-3′-one], the EC50 is 23 nM.

Consider `CCc1cc(C(=O)N2CCC3(CC2)O[C@@H]2CC[C@@H](c4cc(F)cc(F)c4)N2C3=O)no1` [Example 6.62, (5′S,7a′R)-5′-(3,5-difluorophenyl)-1-(5-ethyl-1,2-oxazole-3-carbonyl)tetrahydro-3′H-spiro[piperidine-4,2′-pyrrolo[2,1-b] [1,3]oxazol]-3′-one], for which the EC50 stood at 64.8 nM. In the case of `O=C(c1cc2n(n1)CCCC2)N1CCC2(CC1)O[C@@H]1CC[C@@H](c3cc(F)cc(F)c3)N1C2=O` [Example 5.75, (5′S,7a′R)-5′-(3,5-difluoro-phenyl)-1-(4,5,6,7-tetra-hydropyrazolo[1,5-a]-pyridine-2-carbonyl)tetra-hydro-3′H-spiro[piperi-dine-4,2′-pyrrolo[2,1-b]oxazol]-3′-one], the EC50 stood at 524 nM. Take `Cc1ccccc1[C@@H]1CC[C@H]2OC3(CCN(c4ccnc5c(F)cnn45)CC3)C(=O)N21` [Example 4.255, (5′S,7a′R)-1-(3-fluoropyrazolo[1,5-a]pyrimidin-7-yl)-5′-(2-methylphenyl)tetrahydro-3′H-spiro[piperidine-4,2′-pyrrolo[2,1-b] [1,3]oxazol]-3′-one]: the EC50 is 40.3 nM. The figure for `O=C1N2[C@H](OC13CCN(c1ccnc4c(F)cnn14)CC3)[C@H](O)C[C@H]2c1ccccc1` [Example 4.149, (5′S,7′R,7a′R)-1-(3-fluoropyrazolo[1,5-a]pyrimidin-7-yl)-7′-hydroxy-5′-phenyltetrahydro-3′H-spiro[piperidine-4,2′-pyrrolo[2,1-b] [1,3]oxazol]-3′-one] is under 25 nM; for `CSc1cnc(N2CCC3(CC2)O[C@@H]2CC[C@@H](c4cc(F)cc(F)c4)N2C3=O)nc1` [Example 4.55, (5′S,7a′R)-5′-(3,5-difluorophenyl)-1-[5-(methylsulfanyl)pyrimidin-2-yl]tetrahydro-3′H-spiro[piperidine-4,2′-pyrrolo[2,1-b] [1,3]oxazol]-3′-one] it is 246 nM; for `Cc1cn(-c2cc(N3CCC4(CC3)O[C@@H]3CC[C@@H](c5ccccc5)N3C4=O)ncn2)cn1` [Example 4.172, (5′S,7a′R)-1-[6-(4-methyl-1H-imidazol-1-yl)pyrimidin-4-yl]-5′-phenyltetrahydro-3′H-spiro[piperidine-4,2′-pyrrolo[2,1-b] [1,3]oxazol]-3′-one] it is 25.2 nM. With `Cc1cc(F)c(C(=O)N2CCC3(CC2)O[C@@H]2CC[C@@H](c4ccccc4)N2C3=O)cc1F` [Example 5.12, (5′S,7a′R)-1-(2,5-difluoro-4-methylbenzene-1-car-bonyl)-5′-phenyltetra-hydro-3′H-spiro[piperi-dine-4,2′-pyrrolo[2,1-b] [1,3]oxazol]-3′-one], the EC50 is under 25 nM. Consider `O=C1N2[C@@H](CC[C@H]2c2ccccc2)OC12CCN(c1cccn3nccc13)CC2` [Example 4.150, (5′S,7a′R)-5′-phenyl-1-(pyrazolo[1,5-a]pyridin-4-yl)tetrahydro-3′H-spiro[piperidine-4,2′-pyrrolo[2,1-b] [1,3]oxazol]-3′-one], for which the EC50 came out at 34.4 nM. On to `O=C(c1cccc(C2CC2)c1)N1CCC2(CC1)O[C@@H]1CC[C@@H](c3cc(F)cc(F)c3)N1C2=O` [Example 5.62, (5′S,7a′R)-1-(3-cyclo-propylbenzoyl)-5′-(3,5-difluorophenyl)tetrahydro-3′H-spiro[piperidine-4,2′-pyrrolo[2,1-b]oxazol]-3′-one], for which the EC50 was under 25 nM.

As for `CCOc1cnc(N2CCC3(CC2)O[C@@H]2CC[C@@H](c4cc(F)cc(F)c4)N2C3=O)nc1` [Example 4.57, (5′S,7a′R)-5′-(3,5-difluorophenyl)-1-(5-ethoxypyrimidin-2-yl)tetrahydro-3′H-spiro[piperidine-4,2′-pyrrolo[2,1-b] [1,3]oxazol]-3′-one], the EC50 turned out to be 243 nM. The figure for `N#Cc1ccc(N2CCC3(CC2)O[C@@H]2CC[C@@H](c4cc(F)cc(F)c4)N2C3=O)n2ncnc12` [Example 14.2, 5-((5′S,7a′R)-5′-(3,5-difluorophenyl)-3′-oxotetrahydro-3′H-spiro[piperidine-4,2′-pyrrolo[2,1-b]oxazol]-1-yl)-[1,2,4]triazolo[1,5-a]pyridine-8-carbonitrile, TFA salt] is under 25 nM; for `CC1CC2(CCN1c1ccnc3ccnn13)O[C@@H]1CC[C@@H](c3ccccc3)N1C2=O` (stereo partly drawn) [Example 4.231, (4R,5′S,7a′R)-2-methyl-5′-phenyl-1-(pyrazolo[1,5-a]pyrimidin-7-yl)tetrahydro-3′H-spiro[piperidine-4,2′-pyrrolo[2,1-b] [1,3]oxazol]-3′-one] it is under 25 nM; for `COc1cccc(F)c1C(=O)N1CCC2(CC1)O[C@@H]1CC[C@@H](c3cc(F)cc(F)c3)N1C2=O` [Example 6.72, (5′S,7a′R)-5′-(3,5-difluorophenyl)-1-(2-fluoro-6-methoxy-benzene-1-carbonyl) tetrahydro-3′H-spiro [piperidine-4,2′-pyrrolo[2,1-b][1,3]-oxazol]-3′-one] it is 41.3 nM. Regarding `COc1ccc(F)c(C(=O)N2CCC3(CC2)O[C@@H]2CC[C@@H](c4ccccc4)N2C3=O)c1` [Example 6.149, (5′S,7a′R)-1-(2-fluoro-5-methoxybenzene-1-carbonyl)-5′-phenyl-tetrahydro-3′H-spiro [piperidine-4,2′-pyrrolo[2,1-b][1,3]oxazol]-3′-one], the EC50 was under 25 nM.
